Data set [1] addresses Sodium channel protein type 9 subunit alpha (Homo sapiens, UniProt Q15858). In words: Inhibition of human Nav1.7 expressed in HEK cells assessed as reduction in sodium current at -60 mV holding potential by PatchXpress platform based whole cell patch clamp electrophysiological assay. On the set-up: species or system HEK293. On the technique in general: Patch clamp records ionic current or voltage across a cell membrane.

The target of a further data set is Cytochrome P450 3A4 (Homo sapiens, UniProt P08684). In words: Inhibition of CYP3A4 (unknown origin) using midazolam substrate. The format is ADME.
The target in data set [2] is T1, Cytochrome P450 2D6 (Homo sapiens, UniProt P10635). Nature of the data set: Inhibition of CYP2D6 (unknown origin) using bufuralol substrate. The format is ADME.
For another data set, the target named is Cytochrome P450 2C9 (Homo sapiens, UniProt P11712). Nature of the data set: Inhibition of CYP2C9 (unknown origin) using diclofenac substrate. The format is ADME.
In a further data set the target is Cytochrome P450 2C19 (Homo sapiens, UniProt P33261). Nature of the data set: Inhibition of CYP2C19 (unknown origin) using omeprazole substrate. The format is ADME.
The target of data set [3] is Sodium channel protein type 5 subunit alpha (Homo sapiens, UniProt Q14524). In words: Inhibition of human Nav1.5 expressed in HEK cells assessed as reduction in sodium current at -60 mV holding potential by PatchXpress platform based whole cell patch clamp electrophysiological assay. Further details: species or system HEK293.
The target of another data set is CYP3A4 (Homo sapiens, UniProt P08684). Nature of the data set: Inhibition of CYP3A4 (unknown origin) using midazolam substrate at 10 uM. The format is ADME. Particulars: probe midazolam.
The target in a further data set is CYP2C9 (Homo sapiens, UniProt P11712). Nature of the data set: Inhibition of CYP2C9 (unknown origin) using diclofenac substrate at 10 uM. The format is ADME. Particulars: probe diclofenac.
A further data set concerns the target CYP2D6 (Homo sapiens, UniProt P10635). Nature of the data set: (§1) Inhibition of CYP2D6 (unknown origin) using bufuralol substrate at 10 uM. The format is ADME. The settings on record: probe bufuralol.
The next data set addresses CYP2C19 (Homo sapiens, UniProt P33261). In words: Inhibition of CYP2C19 (unknown origin) using omeprazole substrate at 10 uM. The settings on record: probe omeprazole. The format is ADME.
The target of data set [4] is T1, Cytochrome P450 2D6. Described as §1. The format is ADME. Particulars: 10 µM.

Each structure is given as a SMILES string. Some results are limits rather than exact numbers.

CYP3A4, sequence (P08684 whole entry): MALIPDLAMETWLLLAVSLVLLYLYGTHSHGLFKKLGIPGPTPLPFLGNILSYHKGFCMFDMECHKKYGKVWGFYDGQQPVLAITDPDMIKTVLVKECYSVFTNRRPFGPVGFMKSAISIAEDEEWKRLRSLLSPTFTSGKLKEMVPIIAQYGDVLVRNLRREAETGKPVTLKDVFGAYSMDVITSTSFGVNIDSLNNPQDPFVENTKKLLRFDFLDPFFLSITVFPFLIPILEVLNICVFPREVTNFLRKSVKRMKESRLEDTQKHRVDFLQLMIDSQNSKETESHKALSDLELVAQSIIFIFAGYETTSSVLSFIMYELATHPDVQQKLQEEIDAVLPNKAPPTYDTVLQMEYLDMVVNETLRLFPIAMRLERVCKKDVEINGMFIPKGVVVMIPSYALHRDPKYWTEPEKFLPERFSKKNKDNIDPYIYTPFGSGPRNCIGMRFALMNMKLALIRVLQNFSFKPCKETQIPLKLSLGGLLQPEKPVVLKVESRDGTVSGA
Sodium channel protein type 9 subunit alpha, sequence (Q15858 whole entry): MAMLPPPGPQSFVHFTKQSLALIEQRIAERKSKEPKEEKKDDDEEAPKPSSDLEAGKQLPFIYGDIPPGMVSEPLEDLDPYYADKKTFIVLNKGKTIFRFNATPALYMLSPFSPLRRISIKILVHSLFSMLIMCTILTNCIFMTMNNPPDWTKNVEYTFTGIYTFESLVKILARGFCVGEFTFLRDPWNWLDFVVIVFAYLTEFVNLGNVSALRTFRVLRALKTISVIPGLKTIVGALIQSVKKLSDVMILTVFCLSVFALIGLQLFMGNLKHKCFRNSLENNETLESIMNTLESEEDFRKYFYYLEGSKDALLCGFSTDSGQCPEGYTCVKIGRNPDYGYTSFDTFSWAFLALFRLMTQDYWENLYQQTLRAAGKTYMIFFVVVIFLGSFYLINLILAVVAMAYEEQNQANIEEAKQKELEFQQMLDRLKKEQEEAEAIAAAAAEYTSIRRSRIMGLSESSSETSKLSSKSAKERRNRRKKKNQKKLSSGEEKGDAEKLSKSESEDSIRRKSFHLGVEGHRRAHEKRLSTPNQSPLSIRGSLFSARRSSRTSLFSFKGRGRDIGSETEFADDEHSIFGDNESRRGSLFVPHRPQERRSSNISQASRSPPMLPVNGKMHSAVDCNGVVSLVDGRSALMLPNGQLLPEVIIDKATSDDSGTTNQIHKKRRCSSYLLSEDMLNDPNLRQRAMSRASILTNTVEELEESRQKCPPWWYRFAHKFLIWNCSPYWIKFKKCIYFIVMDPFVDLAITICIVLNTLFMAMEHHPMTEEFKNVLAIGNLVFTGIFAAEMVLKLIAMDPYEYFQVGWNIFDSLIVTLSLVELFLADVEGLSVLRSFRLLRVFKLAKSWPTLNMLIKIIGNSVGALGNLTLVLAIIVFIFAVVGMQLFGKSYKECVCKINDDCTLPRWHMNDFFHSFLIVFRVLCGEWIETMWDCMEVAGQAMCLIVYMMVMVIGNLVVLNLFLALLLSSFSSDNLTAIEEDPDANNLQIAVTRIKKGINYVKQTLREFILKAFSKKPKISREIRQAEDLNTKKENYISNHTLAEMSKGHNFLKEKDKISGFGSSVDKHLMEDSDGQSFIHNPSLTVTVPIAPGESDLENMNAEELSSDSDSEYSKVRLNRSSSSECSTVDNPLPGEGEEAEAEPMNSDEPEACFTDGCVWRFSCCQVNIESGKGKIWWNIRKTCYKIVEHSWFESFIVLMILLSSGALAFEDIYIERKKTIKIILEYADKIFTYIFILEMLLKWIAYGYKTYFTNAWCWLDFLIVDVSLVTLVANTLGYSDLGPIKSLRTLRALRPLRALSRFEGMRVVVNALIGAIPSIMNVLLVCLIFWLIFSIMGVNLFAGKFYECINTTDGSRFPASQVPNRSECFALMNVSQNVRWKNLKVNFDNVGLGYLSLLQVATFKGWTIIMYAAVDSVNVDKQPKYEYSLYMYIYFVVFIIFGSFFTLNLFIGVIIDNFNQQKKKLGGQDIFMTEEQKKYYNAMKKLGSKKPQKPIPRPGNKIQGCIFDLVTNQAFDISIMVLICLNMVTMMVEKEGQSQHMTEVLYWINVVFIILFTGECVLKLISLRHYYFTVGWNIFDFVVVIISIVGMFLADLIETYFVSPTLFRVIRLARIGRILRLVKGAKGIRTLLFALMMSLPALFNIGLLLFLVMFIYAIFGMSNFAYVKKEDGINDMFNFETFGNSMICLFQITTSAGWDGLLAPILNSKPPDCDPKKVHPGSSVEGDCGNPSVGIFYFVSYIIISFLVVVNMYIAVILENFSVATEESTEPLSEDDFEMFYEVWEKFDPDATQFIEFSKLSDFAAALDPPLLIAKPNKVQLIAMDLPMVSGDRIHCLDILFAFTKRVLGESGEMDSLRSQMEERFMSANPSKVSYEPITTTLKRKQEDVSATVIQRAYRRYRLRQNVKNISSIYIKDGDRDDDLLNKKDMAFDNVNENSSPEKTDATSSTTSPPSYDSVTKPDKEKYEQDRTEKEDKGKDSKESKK
CYP2D6, sequence (P10635 whole entry): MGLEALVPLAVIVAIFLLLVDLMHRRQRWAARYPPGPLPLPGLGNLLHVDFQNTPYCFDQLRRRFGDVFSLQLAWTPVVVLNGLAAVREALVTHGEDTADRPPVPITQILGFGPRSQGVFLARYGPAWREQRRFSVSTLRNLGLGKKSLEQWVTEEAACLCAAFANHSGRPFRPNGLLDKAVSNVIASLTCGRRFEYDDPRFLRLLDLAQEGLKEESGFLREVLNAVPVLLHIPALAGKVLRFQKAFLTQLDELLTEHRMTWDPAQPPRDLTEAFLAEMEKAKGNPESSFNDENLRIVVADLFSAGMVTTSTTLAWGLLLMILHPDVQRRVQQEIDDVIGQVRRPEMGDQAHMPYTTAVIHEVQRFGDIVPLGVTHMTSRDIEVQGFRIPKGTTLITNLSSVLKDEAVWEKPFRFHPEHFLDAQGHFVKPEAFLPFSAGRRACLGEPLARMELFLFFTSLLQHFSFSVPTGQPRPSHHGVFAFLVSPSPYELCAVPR
CYP2C19, sequence (P33261 whole entry): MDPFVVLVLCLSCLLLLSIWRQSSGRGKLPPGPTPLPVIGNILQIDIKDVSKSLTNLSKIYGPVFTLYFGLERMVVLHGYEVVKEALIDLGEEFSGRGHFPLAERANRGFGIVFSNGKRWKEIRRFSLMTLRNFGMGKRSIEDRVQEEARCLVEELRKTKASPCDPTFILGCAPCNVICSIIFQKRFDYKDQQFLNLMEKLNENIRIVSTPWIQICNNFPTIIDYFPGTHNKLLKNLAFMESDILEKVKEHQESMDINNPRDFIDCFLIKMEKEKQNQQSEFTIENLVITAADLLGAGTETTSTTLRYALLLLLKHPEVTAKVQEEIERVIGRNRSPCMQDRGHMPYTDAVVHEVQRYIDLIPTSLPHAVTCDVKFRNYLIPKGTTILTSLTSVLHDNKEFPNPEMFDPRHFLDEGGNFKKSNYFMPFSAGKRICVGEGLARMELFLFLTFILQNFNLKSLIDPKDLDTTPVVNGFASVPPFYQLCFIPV
CYP2C9, sequence (P11712 whole entry): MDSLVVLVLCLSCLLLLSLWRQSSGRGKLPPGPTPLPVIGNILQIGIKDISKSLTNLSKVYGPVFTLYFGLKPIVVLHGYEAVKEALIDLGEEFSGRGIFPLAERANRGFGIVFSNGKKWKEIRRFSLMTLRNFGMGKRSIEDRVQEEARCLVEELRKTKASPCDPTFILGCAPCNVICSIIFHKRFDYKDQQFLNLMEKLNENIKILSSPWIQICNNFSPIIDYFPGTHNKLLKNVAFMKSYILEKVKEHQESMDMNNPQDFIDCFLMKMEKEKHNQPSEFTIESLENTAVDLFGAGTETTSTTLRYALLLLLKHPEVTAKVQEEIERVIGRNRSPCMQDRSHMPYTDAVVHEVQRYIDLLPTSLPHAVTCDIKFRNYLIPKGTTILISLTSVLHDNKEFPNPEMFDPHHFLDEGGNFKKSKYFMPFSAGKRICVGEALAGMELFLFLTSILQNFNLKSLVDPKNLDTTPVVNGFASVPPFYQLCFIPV
T1 sequence (P10635 whole entry): as the sequence (P10635 whole entry) above
Cytochrome P450 3A4, sequence (P08684 whole entry): as the sequence (P08684 whole entry) above
Cytochrome P450 2C19, sequence (P33261 whole entry): as the sequence (P33261 whole entry) above
Cytochrome P450 2C9, sequence (P11712 whole entry): as the sequence (P11712 whole entry) above

What is called IC50 is the concentration at which inhibition is half-maximal. For `O=S(=O)(Nc1ncns1)c1cc(F)c(OC[C@H]2CNCC[C@H]2c2ccc(Cl)cc2)cc1F`, the IC50 in data set [1] stood at 237 nM.
Regarding `O=S(=O)(Nc1ncns1)c1cc(F)c(OC[C@H]2CNCC[C@@H]2c2ccc(Cl)cc2)cc1F`, the IC50 on Cytochrome P450 3A4 was 150 nM; against Cytochrome P450 2D6 [2] it was 260 nM; against Cytochrome P450 2C9 it was 630 nM; against Cytochrome P450 2C19, over 10000 nM.
For orientation: inhibition means the drop in the measured response relative to a control, in per cent. Lower therefore signals a response near the control. On to `O=S(=O)(Nc1ncns1)c1cc(F)c(OCC2(F)CNCCC2c2ccc(F)cc2)cc1F` (stereo not drawn), for which the IC50 in data set [3] is over 10000 nM. The inhibition at 10 µM against CYP3A4 was found to be 94%; on CYP2C9, 99%; on CYP2D6 it was 78%; on CYP2C19, 71%.
Take `O=S(=O)(Nc1ncns1)c1cc(F)c(OC[C@@H]2CN(CCF)CC[C@H]2c2ccc(Cl)cc2)cc1F`: the IC50 in data set [3] is over 10000 nM; in data set [1], 7 nM. Besides, the inhibition at 10 µM came to 98% against CYP3A4, 97% against CYP2C9, 90% at CYP2D6 and 96% against CYP2C19.
Turning to `O=S(=O)(Nc1ncns1)c1cc(F)c(OC[C@@H]2CNCC[C@H]2c2ccc(Cl)cc2)cc1F` (racemic), the inhibition at 10 µM at CYP3A4 came to 94%; at CYP2C9, 100%; on CYP2D6, 93%; at CYP2C19 it was 75%.
As to `O=S(=O)(Nc1ncns1)c1cc(F)c(OC[C@@H]2CNCC[C@H]2c2ccc(F)cc2)cc1F` (relative stereo), the IC50 was over 10000 nM in data set [3] and 6.8 nM in data set [1]. Also, the inhibition at 10 µM was found to be 96% against CYP3A4, 100% on CYP2C9, 92% against CYP2D6 and 97% against CYP2C19.
Consider `O=S(=O)(Nc1ncns1)c1cc(F)c(OC[C@H]2CNCC[C@@H]2c2ccc(F)c(F)c2)cc1F` (relative stereo), for which the IC50 in [3] is over 10000 nM. The inhibition at 10 µM at CYP3A4 worked out at 90%; on CYP2C9, 96%; on CYP2D6, 85%; against CYP2C19, 74%.
For the compound `O=S(=O)(Nc1ncns1)c1cc(F)c(OC[C@H]2CNCC[C@@H]2c2ccc(Cl)c(F)c2)cc1F` (relative stereo), the IC50 in [3] was over 10000 nM. The inhibition at 10 µM on CYP3A4 amounted to 96%; against CYP2C9, 100%; at CYP2D6, 85%; against CYP2C19, 60%.
For `Cc1ccc([C@H]2CCNC[C@@H]2COc2cc(F)c(S(=O)(=O)Nc3ncns3)cc2F)cc1` (relative stereo), the concentration for half-maximal inhibition (IC50) in data set [3] was over 10000 nM; in [1], 13 nM. Besides, the inhibition at 10 µM at CYP3A4 turned out to be 95%; on CYP2C9 it was 100%; against CYP2D6 it was 81%; against CYP2C19 it was 59%.
Consider `O=C1C[C@@H](c2ccc(F)cc2)[C@H](COc2cc(F)c(S(=O)(=O)Nc3ncns3)cc2F)CN1` (relative stereo), for which the IC50 in [3] is over 10000 nM; in data set [1], 82 nM. Moreover, the inhibition at 10 µM against CYP3A4 was determined as 95%; against CYP2C9, 58%; against CYP2D6, 6%; against CYP2C19 it was 64%.
For the compound `O=S(=O)(Nc1ncns1)c1cc(F)c(OC[C@@H]2CCNC[C@H]2c2ccc(F)cc2)cc1F` (relative stereo), the half-maximal inhibitory concentration (IC50) worked out at 5900 nM in data set [3] and 32 nM in [1]. In addition, the inhibition at 10 µM on CYP3A4 turned out to be 89%; on CYP2C9, 97%; against CYP2D6 it was 61%; on CYP2C19 it was 69%.
`O=S(=O)(Nc1ncns1)c1cc(F)c(OC[C@@H]2CNC[C@H]2c2ccc(Cl)cc2)cc1F` (relative stereo): the inhibition at 10 µM at CYP3A4 came out at 93%; on CYP2C9, 100%; on CYP2D6, 97%; against CYP2C19, 90%. Besides, the IC50 in [1] came out at 50 nM.
Turning to `O=S(=O)(Nc1ncns1)c1cc(F)c(OC[C@@H]2CCCC[C@H]2c2ccc(Cl)cc2)cc1F` (relative stereo), the IC50 in data set [3] turned out to be 24700 nM; in data set [1], 280 nM. In addition, the inhibition at 10 µM against CYP3A4 came to 99%; on CYP2C9, 100%; at CYP2D6, 66%; at CYP2C19, 95%.
On to `CC(C)(C)OC(=O)N1CC[C@@H](c2ccc(Cl)cc2)[C@H](COc2cc(F)c(S(=O)(=O)Nc3ncns3)cc2F)C1` (relative stereo), for which the inhibition at 10 µM on CYP3A4 worked out at 98%; at CYP2C9 it was 100%; at CYP2D6, 78%; on CYP2C19 it was 100%. Moreover, the IC50 in data set [1] came out at 164 nM.
For `CN1CC[C@@H](c2ccc(Cl)cc2)[C@H](COc2cc(F)c(S(=O)(=O)Nc3ncns3)cc2F)C1` (relative stereo), the IC50 is over 10000 nM in data set [3] and 11 nM in [1]. Besides, the inhibition at 10 µM at CYP3A4 worked out at 97%; against CYP2C9 it was 97%; against CYP2C19 it was 86%. Also, the “inhibition (INH)” value against Cytochrome P450 2D6 [4] amounted to 93%.
Consider `O=S(=O)(Nc1ncns1)c1cc(F)c(OC[C@@H]2CN(CC(F)F)CC[C@H]2c2ccc(Cl)cc2)cc1F` (relative stereo), for which the inhibition at 10 µM against CYP3A4 turned out to be 98%; against CYP2C9, 100%; against CYP2D6 it was 61%; at CYP2C19 it was 88%. In [1], the IC50 turned out to be 38 nM.
As to `O=S(=O)(Nc1ncns1)c1cc(F)c(OC[C@@H]2CN(CC(F)(F)F)CC[C@H]2c2ccc(Cl)cc2)cc1F` (relative stereo), the IC50 in data set [3] is 2600 nM; in data set [1], 130 nM. Further, the inhibition at 10 µM against CYP3A4 is 97%; at CYP2C9 it was 100%; against CYP2D6 it was 47%; at CYP2C19 it was 85%.
With `Cc1nsc(NS(=O)(=O)c2cc(F)c(OC[C@@H]3CNCC[C@H]3c3ccc(Cl)cc3)cc2F)n1` (relative stereo), the inhibition at 10 µM on CYP3A4 came out at 61%; against CYP2C9 it was 100%; against CYP2D6, 55%; against CYP2C19, 73%. For the same compound, in data set [1], the IC50 came to 194 nM.
`O=S(=O)(Nc1nncs1)c1cc(F)c(OC[C@@H]2CNCC[C@H]2c2ccc(Cl)cc2)cc1F` (relative stereo): the figures for the IC50 in data set [3] and in data set [1] were over 10000 nM and 84 nM, respectively. Besides, the inhibition at 10 µM on CYP3A4 turned out to be 30%; on CYP2C9, 99%; at CYP2D6 it was 54%; on CYP2C19, 35%.
For `Cc1cnc(NS(=O)(=O)c2cc(F)c(OC[C@@H]3CNCC[C@H]3c3ccc(Cl)cc3)cc2F)s1` (relative stereo), the inhibition at 10 µM against CYP3A4 was found to be 22%; against CYP2C9, 99%; against CYP2D6, 48%; against CYP2C19 it was 42%.
In the same order, the values of `O=S(=O)(Nc1ncc(Cl)s1)c1cc(F)c(OC[C@@H]2CNCC[C@H]2c2ccc(Cl)cc2)cc1F` (relative stereo) are 11%, 100%, 40% and 20%.
As for `Cc1cc(NS(=O)(=O)c2cc(F)c(OC[C@@H]3CNCC[C@H]3c3ccc(Cl)cc3)cc2F)no1` (relative stereo), the inhibition at 10 µM against CYP3A4 is 24%; on CYP2C9 it was 80%; at CYP2D6 it was 38%; against CYP2C19, 29%. In addition, in [1], the IC50 was found to be 1890 nM.
In the case of `O=S(=O)(Nc1ccc(F)cn1)c1cc(F)c(OC[C@@H]2CNCC[C@H]2c2ccc(Cl)cc2)cc1F` (relative stereo), the values for the IC50 in data set [3] and in [1] were over 10000 nM and 71 nM, respectively. The inhibition at 10 µM on CYP3A4 turned out to be 42%; against CYP2C9 it was 99%; against CYP2D6 it was 50%; on CYP2C19 it was 56%.
As to `O=S(=O)(Nc1cccnn1)c1cc(F)c(OC[C@@H]2CNCC[C@H]2c2ccc(Cl)cc2)cc1F` (relative stereo), the inhibition at 10 µM at CYP3A4 was 13%; on CYP2C9, 49%; on CYP2D6 it was 37%; on CYP2C19 it was 36%. For the same compound, in data set [1], the IC50 was found to be 171 nM.
On to `O=S(=O)(Nc1ccncn1)c1cc(F)c(OC[C@@H]2CNCC[C@H]2c2ccc(Cl)cc2)cc1F` (relative stereo), for which the IC50 in [3] is over 10000 nM. The inhibition at 10 µM against CYP3A4 is 57%; against CYP2C9, 91%; against CYP2D6, 94%; against CYP2C19 it was 72%.
`O=S(=O)(Nc1ncccn1)c1cc(F)c(OC[C@@H]2CNCC[C@H]2c2ccc(Cl)cc2)cc1F` (relative stereo): the IC50 in data set [3] was over 10000 nM; in data set [1] it was 53 nM. The inhibition at 10 µM on CYP3A4 is 12%; on CYP2C9, 60%; against CYP2D6, 34%; on CYP2C19, 15%.
As for `O=S(=O)(Nc1ncc(F)cn1)c1cc(F)c(OC[C@@H]2CNCC[C@H]2c2ccc(Cl)cc2)cc1F` (relative stereo), in [3], the IC50 is over 10000 nM. Also, the inhibition at 10 µM against CYP3A4 is 25%; on CYP2C9, 73%; against CYP2D6, 35%; on CYP2C19 it was 26%.

The values above are taken from ChEMBL document CHEMBL3352194, “The discovery of benzenesulfonamide-based potent and selective inhibitors of voltage-gated sodium channel Na(v)1.7” (Bioorg Med Chem Lett, 2014).
